These results are taken from patent US20030199671A1, “Binding molecules for Fc-region polypeptides” (priority 2001, published 2003).

Positions of bridges follow the written chain, without caps; N, C: chain ends. Residues, ends and D or L forms follow the SMILES beside them.

The target in one assay is T1, human plasma IgG3 (Homo sapiens, UniProt P01860).
T1 construct: the individual human plasma IgG isoforms: IgG1, IgG2, IgG3, or IgG4; purchased Calbiochem; host or cells: human plasma
The assay is described as follows: Fluorescence anisotropy binding, fluorescein-labeled peptide. How it is done: (§1) Peptides were synthesized by BACHEM Bioscience, Inc., (King of Prussia, Pa.), fluorescein labeled and purified by HPLC. Binding studies were performed using either a mixture of human plasma IgG isoforms (the Fc target) or the individual human plasma IgG isoforms: IgG1, IgG2, IgG3, or IgG4. All Fc target proteins were obtained from Calbiochem.
(§2) All measurements were performed in 384 well microplates with 20 nM fluorescein-labeled peptide and various concentrations of the IgG isoform in a volume of between 10 and 20 μl using a Tecan Polarion fluorescence polarization plate reader. All binding buffers included 0.01% (v/v) Tween 20 to prevent peptide adsorption to the microplate. The binding mixture was equilibrated for 10 minutes in the microplate at 30° C. prior to performing the measurement.
(§3) Peptides were synthesized, fluorescein-labeled and HPLC purified as described above. Binding studies were performed using either a mixture of human plasma IgG isoforms (the Fc protein) or the individual human plasma IgG isoforms: IgG1, IgG2, IgG3, or IgG4.
(§4) Measurements were performed in 384-well microplates with 2 nM fluorescein-labeled peptide and a varied concentration of the IgG isoform target in a volume of 10 μl using a Tecan Polarion fluorescence polarization plate reader. The Fc binding buffer was 50 mM Tris-HCl, 200 mM NaCl, pH 8.0, 0.01% Tween 20. The IgG binding buffer was PBS with 0.01% Tween 20. The binding mixtures were equilibrated for 10 minutes in the microplate at 30° C. prior to performing the measurements.

Assay [1] has as its target Fc (mixture of human plasma IgG isoforms). The assay is described as above. The conditions noted are these: pH 8.0, 0.05 M Tris-HCl, 0.2 M NaCl. As for the experimental part:
as §1, §2, §3, §4

Another assay concerns the target T2, human plasma IgG4 (Homo sapiens, UniProt P01861).
T2 construct: the individual human plasma IgG isoforms: IgG1, IgG2, IgG3, or IgG4; purchased Calbiochem; host or cells: human plasma
The assay is described as above. How it is done: as §1, §2, §3, §4

A further assay has as its target IgG4 (Homo sapiens, UniProt P01861). The assay is described as follows: Column capture of human IgG4 from goat IgG in buffer. The assay is classed as binding. Set-up: all human subtypes derived from myeloma patients; purchased Calbiochem 400126; host or cells: myeloma patients. The conditions noted are these: SEC-HPLC; load 99.5% monomer. How it is done: 0.250 mg of hIgG4 (99.5% monomer) was added to 1.0 mg of goat IgG in a total volume of 1.0 ml of PBST, pH 7.2. Thus, 1.0 ml was loaded onto a 350 ul mini-column as described above. The column was washed to baseline with PBST, pH 7.2 and the flowthrough fraction collected. Bound IgG was eluted with 0.1M sodium bicarbonate buffer, pH 9.0 and the column cleaned with 0.1M CAPS, pH 11.5. The eluted and clean fractions were quickly neutralized to pH˜7.2 and assayed for mass recovery by SEC-HPLC. […] The column load, flowthrough, elution and cleaning fractions were further analyzed by electrophoresis (SDS-PAGE), Coomassie stain.
(SEC sorts molecules by how far they enter the pores of the column.)

Another assay relates to human Fc fragments. In words: Mini-chromatography column capture from PBST. The assay is classed as binding. The conditions noted are these: 350 μl column, Fc spiked into PBST, pH 7.2. How it is done:
(§5) For these experiments, 350 μl columns (3×50 mm) were packed with each media. The columns were tested with human Fc fragments or human IgG1 (Calbiochem, 401104 and 400120 respectively) spiked into PBST, pH 7.2 at a concentration of 0.5 g/l. 65 μg of Fc was loaded onto each column. After loading, the columns were washed with PBST, pH 7.2, eluted with 30 mM H3PO4, 150 mM NaCl, pH 2.0 and cleaned with 0.1M CAPS, pH 11.5 buffer (3-[Cyclohexylamino]-1-propane-sulfonic acid). Fractions collected were immediately neutralized to pH ˜7.2 with 2.0 M Tris, pH 8.0. All column operations were conducted at 200 μl/min (170 cm/hr).

For another assay, the target named is T3, hIgG1 (Homo sapiens, UniProt P01857).
T3 construct: purchased Calbiochem 400120; host or cells: human myeloma patients
The assay is described as follows: Mini-chromatography column binding (dynamic conditions). The conditions noted are these: 350 μl column, human IgG1 spiked into PBST, pH 7.2. As for the experimental part: Thus, 250 μg of target (hIgG1, hIgG2, hIgG3, hIgG4, goat IgG and bovine IgG) at 0.250 mg/ml in PBST, pH 7.2 or TBST, pH 7.3 was loaded onto a 350 μl column (3×50 mm) run at 0.200 ml/min. flowrate (170 cm/hr). Flowthrough, elution and cleaning fractions were collected and assayed for total protein recovery by size-exclusion HPLC. Percentage mass balance was also determined to be 90-100% on average.
as §5

Another assay has as its system polyclonal human IgG. In words: DX253 column re-use: total dynamic binding capacity. As for the experimental part:
DX253 peptide was immobilized onto NHS-activated 4 Fast Flow to a ligand density of 2.9 μmole/ml as determined by quantitative amino acid analysis. This affinity resin was packed into a 4.6 mm×6 cm (internal diam.×length, 1.0 ml bed volume) PEEK column (Isolation Technologies, Inc., 5050IP-08046-006-20).
To establish total dynamic binding capacity, polyclonal human IgG (ICN, 55908) was prepared in PBS, pH 7.2 containing 0.05% NaN3 at 2.5 mg/ml. A total of 75 mg (30 ml) was loaded at 0.21 ml/minute (75 cm/hr) to capacity (until the absorbance at 280 nm of the load was equivalent to that of the column flowthrough). Fractions were collected across the entire run. Unbound IgG was washed to baseline at 0.42 ml/minute (150 cm/hour) with PBS, pH 7.2. Bound IgG was eluted with 0.1M citrate, pH 3.0 buffer and immediately neutralized with minimal addition of 1M HEPES, pH 9.0 buffer to ˜pH 7.0. […] All post-load wash, elution and cleaning steps were performed at a flow rate of 0.42 ml/minute (150 cm/hour). Total mg IgG bound was determined by measuring the absorbance at 280 nm of the elution fraction calculated using an extinction coefficicent of 1.4. Initial (T=0, prior to initiating column cycling) total dynamic capacity measured 19.8 mg human IgG per ml affinity resin. […] Mass balance recovery for these 5 total capacity determinations averaged 98%. […] The column retained approximately 90% relative performance with respect to total dynamic capacity after 95 cycles.

[2] abbreviates: pH 9.3, 0.01 M sodium bicarbonate.

T1 sequence (P01860 1-377 isoform P01860-1): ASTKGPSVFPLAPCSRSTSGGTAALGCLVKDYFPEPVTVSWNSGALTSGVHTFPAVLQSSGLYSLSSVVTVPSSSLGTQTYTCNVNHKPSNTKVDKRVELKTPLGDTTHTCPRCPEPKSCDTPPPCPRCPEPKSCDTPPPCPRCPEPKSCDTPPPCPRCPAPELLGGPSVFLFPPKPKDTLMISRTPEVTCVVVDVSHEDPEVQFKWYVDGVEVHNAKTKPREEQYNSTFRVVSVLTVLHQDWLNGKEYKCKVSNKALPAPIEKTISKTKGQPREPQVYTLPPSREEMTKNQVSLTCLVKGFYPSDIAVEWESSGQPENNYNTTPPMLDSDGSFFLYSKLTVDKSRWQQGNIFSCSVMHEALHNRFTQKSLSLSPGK
T2 sequence (P01861 1-327 isoform P01861-1): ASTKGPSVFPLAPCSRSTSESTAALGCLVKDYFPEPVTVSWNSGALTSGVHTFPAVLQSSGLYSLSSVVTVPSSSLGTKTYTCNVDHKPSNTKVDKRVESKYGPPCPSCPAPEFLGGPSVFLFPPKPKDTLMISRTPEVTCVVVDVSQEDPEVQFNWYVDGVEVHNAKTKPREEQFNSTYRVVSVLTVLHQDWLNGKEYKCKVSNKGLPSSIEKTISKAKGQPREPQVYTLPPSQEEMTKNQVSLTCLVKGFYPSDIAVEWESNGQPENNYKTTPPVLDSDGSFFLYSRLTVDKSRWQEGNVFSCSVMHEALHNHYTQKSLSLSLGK
T3 sequence (P01857 1-330 isoform P01857-1): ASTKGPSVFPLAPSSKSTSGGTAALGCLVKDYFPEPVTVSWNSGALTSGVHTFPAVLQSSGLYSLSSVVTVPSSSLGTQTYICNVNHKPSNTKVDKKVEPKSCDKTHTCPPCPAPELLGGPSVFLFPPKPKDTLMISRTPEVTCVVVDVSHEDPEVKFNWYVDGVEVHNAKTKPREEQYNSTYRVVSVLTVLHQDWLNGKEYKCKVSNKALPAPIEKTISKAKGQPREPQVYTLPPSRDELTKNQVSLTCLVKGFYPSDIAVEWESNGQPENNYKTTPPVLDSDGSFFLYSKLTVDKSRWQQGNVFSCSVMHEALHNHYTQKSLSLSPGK
Chain of IgG4 (P01861 1-327 isoform P01861-1): as the sequence (P01861 1-327 isoform P01861-1) above

On to `CC[C@H](C)[C@@H]1NC(=O)[C@H](CC(C)C)NC(=O)[C@H](CCC(=O)O)NC(=O)CNC(=O)[C@H](Cc2c[nH]c3ccccc23)NC(=O)[C@H]([C@@H](C)O)NC(=O)[C@H]([C@@H](C)O)NC(=O)[C@H](Cc2ccc(O)cc2)NC(=O)[C@H](C(C)C)NC(=O)[C@@H](NC(=O)[C@H](CCSC)NC(=O)[C@H](Cc2c[nH]cn2)NC(=O)[C@H](CC(=O)O)NC(=O)[C@H](CC(=O)O)NC(=O)CNC(C)=O)CSSC[C@@H](C(=O)N[C@@H](CC(=O)O)C(=O)N[C@@H](CC(N)=O)C(=O)N[C@@H](Cc2c[nH]cn2)C(=O)N[C@@H](CCC(=O)O)C(=O)N2CCC[C@H]2C(=O)NCC(=O)N2CCC[C@H]2C(=O)N[C@@H](CCC(=O)O)C(=O)NCC(=O)NCC(=O)NCC(=O)N[C@@H](CCCCN)C(N)=O)NC(=O)[C@H](Cc2c[nH]c3ccccc23)NC1=O` [DX249] (Ac-GDDHMCVYTTWGELIWCDNHEPGPEGGGK-NH2; disulfide 6-17), for which the Kd is over 10 µM on human plasma IgG3 (pH 5.7, 0.01 M Tris-acetate); over 10 µM on human plasma IgG3 (pH 7.4, 0.01 M Tris-HCl); over 10 µM on human plasma IgG3 (pH 7.4, PBS, […] NaCl); over 10 µM at human plasma IgG3 (setting [2]); 2.5 ± 0.5 µM in assay [1]; 1.9 ± 0.4 µM at human plasma IgG4 (pH 7.4, 0.01 M Tris-HCl). For the same compound, the Kd was 1.9 ± 1.2 µM on human plasma IgG4 (pH 7.4, PBS, […] NaCl) and over 10 µM on human plasma IgG4 (setting [2]). Further, the “Monomer in the eluted fraction” value at IgG4 was 99.5%.

On to `CC(=O)NCC(=O)N[C@@H](CC(=O)O)C(=O)N[C@@H](CC(=O)O)C(=O)N[C@@H](CC(=O)O)C(=O)N[C@@H](Cc1c[nH]cn1)C(=O)N[C@H]1CSSC[C@@H](C(=O)N2CCC[C@H]2C(=O)N[C@@H](Cc2c[nH]cn2)C(=O)NCC(=O)N[C@@H](CCC(=O)O)C(=O)N2CCC[C@H]2C(=O)NCC(=O)N2CCC[C@H]2C(=O)N[C@@H](CCC(=O)O)C(=O)NCC(=O)NCC(=O)NCC(=O)N[C@@H](CCCCN)C(N)=O)NC(=O)[C@H](CCC(=O)O)NC(=O)[C@H](CO)NC(=O)[C@H](CC(N)=O)NC(=O)[C@H](Cc2ccccc2)NC(=O)[C@H](Cc2c[nH]c3ccccc23)NC(=O)[C@H](CCC(=O)O)NC(=O)[C@H](CCCNC(=N)N)NC(=O)[C@H](Cc2ccccc2)NC(=O)[C@H](Cc2c[nH]c3ccccc23)NC(=O)[C@H](Cc2ccc(O)cc2)NC1=O` [DX252] (Ac-GDDDHCYWFREWFNSECPHGEPGPEGGGK-NH2; disulfide 6-17 (inferred)), for which the Kd at human plasma IgG3 (pH 5.7, 0.01 M Tris-acetate) is under 0.1 µM; at human plasma IgG3 (pH 7.4, 0.01 M Tris-HCl) it was 2.1 to 3.4 µM; on human plasma IgG3 (setting [2]), over 10 µM; in assay [1], 5.1 ± 3 µM; on human plasma IgG4 (pH 5.7, 0.01 M Tris-acetate) it was over 10 µM; at human plasma IgG4 (pH 7.4, 0.01 M Tris-HCl), 2.1 to 3.4 µM. Besides, the Kd on human plasma IgG4 (pH 7.4, PBS, […] NaCl) is over 10 µM; on human plasma IgG4 (setting [2]) it was over 10 µM. Further, in the assay with human Fc fragments, the “Capture efficiency, Fc” value is on record as 70%. Further, the “Capture efficiency, IgG1” value at hIgG1 was determined as 80%.

“Ac-GDRRACSRDWSGALVWCAGHEPGPEGGGK-NH2 (not fully specified (bridges); printed as Ac-GDRRACSRDWSGALVWCAGHEPGPEGGGK-NH2; cysteine pairing not given here) [DX253]”: the “Initial total dynamic capacity” value in the assay on polyclonal human IgG (T=0, ligand density 2.9 μmole/ml) was 19.8 mg human IgG per ml affinity resin. The “% Relative Performance (total capacity vs T=0, 19.8 mg/ml)” value in the assay on polyclonal human IgG (Total Capacity Cycle Run No. 0) is recorded as 100%; with polyclonal human IgG (Total Capacity Cycle Run No. 26) it was 93.9%; with polyclonal human IgG (Total Capacity Cycle Run No. 66), 85.9%; with polyclonal human IgG (Total Capacity Cycle Run No. 86), 91.4%; in the assay with polyclonal human IgG (Total Capacity Cycle Run No. 96), 87.9%. Moreover, in the assay on polyclonal human IgG (after 95 cycles), the “Relative performance with respect to total dynamic capacity” value is given as “approximately 90%”.

For orientation: Kd means the concentration at which binding is half-saturated.
